Earlier results as cited in paper PMC6422283 (Future medicinal chemistry, 2015).

Test system: TRPV1
Conditions: capsaicin-induced Ca2+ flux into HEK293 cells

| Compound | IC50 |
| --- | --- |
| Cc1nc2cc(NC(=O)c3ccc(-c4ccc(F)cc4)nc3C)ccc2s1 [SB782443] | 49 nM |
| Oc1cc2c(cc1O)CN(C(=S)NCCc1ccc(Cl)cc1)CCC2 [Compound 2, capsazepine] | 100 nM |
